# From patent US7416741B2, “Copper lowering treatment of inflammatory and fibrotic diseases” (The Regents of the University of Michigan, priority 2002, dated 2008)
# What was measured:
# TNFα = test: Lung TNFα mRNA by real time RT-PCR, bleomycin model; type: in vivo, mouse; conditions: Ex 2 Exp 1; bleomycin/TM; day 7
# Procedure: Cytokine assays. Expression of TNFα and TGFβ was determined in lung tissues from the various experiments. TNFα mRNA was measured in total RNA isolated from lung tissue homogenates. Primer Express 2.0 software (Applied Biosystems, Foster City, Calif.) was used to design Taqman primers and MGB probes (6-FAM conjugated) for TNFα, which were then purchased from Applied Biosystems (PE/ABI, Foster City, Calif.). Primers and probes for GAPDH were purchased from PE/ABI. GAPDH mRNA was used as internal control to normalize the amount of input RNA. One-step real time RT-PCR was undertaken with Taqman One Step RT-PCR Master Mix (PE/ABI) using a GeneAmp 5700 Sequence Detection System (PE/ABI). Results were expressed as the threshold cycle (CT) at which an increase of reporter fluorescence (ΔRn) can first be detected. The levels of TNFα mRNA were normalized to the internal control GAPDH signals and expressed as 2^−ΔΔCT.
# cancer patients = test: TM therapy in cancer patients; type: in vivo, human; conditions: 180 mg/day induction dose
# Procedure: TM has also shown positive effects in spontaneous canine cancers. A clinical phase ½ study of a variety of metastatic and advanced cancers has shown positive results, with an average of 11 months freedom from progression in evaluable patients, and long term stabilization in three patients (G J Brewer et al., Clin. Cancer Res., 6:1-10 [2000]). A number of phase 2 studies of specific cancers are under way.
# The current cancer therapy induction dose for TM is 40 mg 3×daily with meals and 60 mg at bedtime separated from food (180 mg/day). At this dose, it takes 15-25 days to induce cancer patients into the Cp target range. This same induction dose is used for IPF patients. All patients remain on their induction doses until they reach target Cp levels, then are switched to maintenance therapy.
# sheep = conditions: cited from earlier work
structure (smiles),measurement,setting,value
"[SH-].[SH-].[S]=[Mo]=[S] [TM, tetrathiomolybdate]","lung TNFα mRNA levels, bleomycin-induced increase",TNFα,"almost completely, and significantly, inhibited this increase"
same,time to induce patients into the Cp target range,cancer patients,15 to 25 days
same,tolerability of intravenous TM,"sheep; copper loaded sheep, 50 or 100 mg 2×weekly for up to 11 weeks",tolerated up to 22 injections of TM without clinical problems
same,adverse side effects,"sheep; prophylactic use in commercial sheep flocks, over 400 animals",no adverse side effects
